What was measured:
[1] = target: Other mutations of Abl kinase that arise during development of resistance (Homo sapiens, UniProt P00519); assay: Inhibition of other Abl kinase resistance mutations (biochemical assays); conditions: read-out: inhibition range, other mutations of Abl kinase
Text: Detailed assay methodologies can be found in the relevant references cited herein, or in the KinaseProfiler Service Assay Protocols (v54, 2011) available from EMD Millipore (www.emdmillipore.com), or from the KinomeScan website (www.kinomescan.com), as appropriate. (For a more detailed description of KINOMEscan's assay technology, see: Fabian et al. A small molecule-kinase interaction map for clinical kinase inhibitors. Nat. Biotechnol. 23, 329-336 (2005)). A summary is provided below.
KinaseProfiler™ assays (EMD Millipore Corp. Billerica, Mass., USA) are […] with purified or partially-purified human kinases. Most of the KinaseProfiler™ assays are conducted in 20 mM MOPS, 1 mM EDTA, 0.01% Brij-35, 5% Glycerol, 0.1% b-mercaptoethanol, 1 mg/mL BSA. The assay involves the transfer of ^32P from γ-^32P-ATP to the target peptide, followed by washing and trapping of the labeled peptide on a filter. The concentration of γ-^32P-ATP used was at the established Km for ATP.

c-Kit = c-Kit (Homo sapiens, UniProt P10721); assay: KinaseProfiler kinase activity assay; assay type: biochemical; set-up: purchased EMD Millipore Corp. (KinaseProfiler service)
c-Kit, sequence (P10721 26-976): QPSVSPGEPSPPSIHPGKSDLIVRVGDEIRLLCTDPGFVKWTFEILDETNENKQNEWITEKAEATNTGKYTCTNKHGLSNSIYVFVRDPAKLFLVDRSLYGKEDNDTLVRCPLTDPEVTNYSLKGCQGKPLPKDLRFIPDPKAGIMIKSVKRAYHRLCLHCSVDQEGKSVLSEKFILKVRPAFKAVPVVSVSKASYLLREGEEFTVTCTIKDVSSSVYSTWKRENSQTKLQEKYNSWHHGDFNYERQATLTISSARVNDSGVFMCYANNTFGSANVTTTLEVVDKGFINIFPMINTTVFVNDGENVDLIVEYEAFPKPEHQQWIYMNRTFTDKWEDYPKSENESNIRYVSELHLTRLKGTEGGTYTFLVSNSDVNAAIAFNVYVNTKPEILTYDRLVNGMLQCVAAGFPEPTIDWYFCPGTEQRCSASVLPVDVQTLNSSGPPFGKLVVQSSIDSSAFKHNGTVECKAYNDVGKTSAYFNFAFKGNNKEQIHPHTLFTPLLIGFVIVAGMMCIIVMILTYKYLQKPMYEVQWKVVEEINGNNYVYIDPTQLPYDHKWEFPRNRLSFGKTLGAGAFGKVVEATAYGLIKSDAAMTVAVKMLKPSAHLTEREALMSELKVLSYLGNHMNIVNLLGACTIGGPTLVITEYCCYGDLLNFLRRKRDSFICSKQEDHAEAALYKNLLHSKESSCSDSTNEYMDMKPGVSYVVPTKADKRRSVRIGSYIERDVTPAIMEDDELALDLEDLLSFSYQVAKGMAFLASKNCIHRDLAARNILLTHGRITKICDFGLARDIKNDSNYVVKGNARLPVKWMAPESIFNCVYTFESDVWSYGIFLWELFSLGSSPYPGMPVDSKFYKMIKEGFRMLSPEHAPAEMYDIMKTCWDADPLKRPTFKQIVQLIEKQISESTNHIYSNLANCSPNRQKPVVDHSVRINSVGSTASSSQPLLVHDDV
Method: KinaseProfiler™ assays (EMD Millipore Corp. Billerica, Mass., USA) are radioligand binding assays with purified or partially-purified human kinases. Most of the KinaseProfiler™ assays are conducted in 20 mM MOPS, 1 mM EDTA, 0.01% Brij-35, 5% Glycerol, 0.1% b-mercaptoethanol, 1 mg/mL BSA. The assay involves the transfer of ^32P from γ-^32P-ATP to the target peptide, followed by washing and trapping of the labeled peptide on a filter. The concentration of γ-^32P-ATP used was at the established Km for ATP.

Other mutations of Abl kinase that arise during development of resistance, sequence (P00519 whole entry, looked up, change not shown): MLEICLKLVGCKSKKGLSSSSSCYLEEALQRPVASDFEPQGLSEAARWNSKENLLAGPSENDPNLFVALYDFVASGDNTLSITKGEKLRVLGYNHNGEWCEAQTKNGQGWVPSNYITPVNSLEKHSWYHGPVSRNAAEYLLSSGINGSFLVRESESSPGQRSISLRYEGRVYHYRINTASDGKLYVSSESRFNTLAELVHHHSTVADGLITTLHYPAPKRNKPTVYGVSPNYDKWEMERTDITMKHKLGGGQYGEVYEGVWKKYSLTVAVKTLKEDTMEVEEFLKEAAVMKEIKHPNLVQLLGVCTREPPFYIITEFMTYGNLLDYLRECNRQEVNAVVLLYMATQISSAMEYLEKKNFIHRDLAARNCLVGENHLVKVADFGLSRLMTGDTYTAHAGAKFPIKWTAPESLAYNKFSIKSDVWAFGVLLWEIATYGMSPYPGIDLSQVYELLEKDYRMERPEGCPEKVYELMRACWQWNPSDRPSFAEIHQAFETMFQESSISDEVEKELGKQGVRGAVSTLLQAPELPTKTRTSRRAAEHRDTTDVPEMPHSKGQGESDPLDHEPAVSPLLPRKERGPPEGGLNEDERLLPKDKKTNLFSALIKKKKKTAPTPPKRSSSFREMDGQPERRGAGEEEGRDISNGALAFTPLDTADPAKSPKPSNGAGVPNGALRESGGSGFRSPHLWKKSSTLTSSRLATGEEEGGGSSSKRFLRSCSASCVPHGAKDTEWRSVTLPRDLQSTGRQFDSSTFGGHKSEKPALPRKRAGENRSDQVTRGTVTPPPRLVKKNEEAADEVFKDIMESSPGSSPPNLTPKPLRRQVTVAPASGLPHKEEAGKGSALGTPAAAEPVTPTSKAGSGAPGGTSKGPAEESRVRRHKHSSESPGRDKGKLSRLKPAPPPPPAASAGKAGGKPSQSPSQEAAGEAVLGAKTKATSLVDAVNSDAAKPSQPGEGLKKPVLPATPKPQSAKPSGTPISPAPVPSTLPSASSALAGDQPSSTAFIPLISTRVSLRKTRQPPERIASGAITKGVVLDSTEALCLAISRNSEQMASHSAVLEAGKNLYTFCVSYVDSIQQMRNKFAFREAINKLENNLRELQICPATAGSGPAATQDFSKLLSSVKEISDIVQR

Nc1nc(Nc2ccc3c(c2)CC[C@@H](N2CCCC2)CC3)nn1-c1cc2c(nn1)-c1ccccc1CCC2 [Compound A, 1-(6,7-dihydro-5H-benzo[6,7]cyclohepta[1,2-c]pyridazine-3-yl)-N^3-(7-(S)-(pyrrolidin-1-yl)-6,7,8,9-tetrahydro-5H-benzo[7]annulene-2-yl)-1H-1,2,4-triazole-3,5-diamine]
IC50 [1]: 16 to 32 nM
IC50 (c-Kit): 1280 nM
